Read-outs that look alike come from different tables or passages of the source.
Tests used:
CDK5/GST-p25 = molecular target: T1, CDK5/GST-p25 (Homo sapiens, UniProt Q00535); assay: Inhibition of CDK5/GST-p25 kinase activity (ELISA with time-resolved fluorescence readout); assay type: biochemical
T1 construct: The final construct, encoding for full-length human CDK5; made in house; host or cells: Sf21 insect cells (baculovirus co-infection)
How it was run: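 Sf21-coexpressed full-length human CDK5 with GST-p25 (p35 aa 108-307), glutathione-purified, at 2 ng/ml was reacted for 20 min at 37 °C on plate-coated GST-Rb(773-928). Buffer was 20 mM HEPES pH 7.2, 10 µM ATP, 10 mM MgCl2 and 2.5% DMSO. Phospho-Rb Ser-780 was detected by Eu-labelled antibody TRF, and IC50 curves were fitted.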

His6-GSK-3β = molecular target: T2, His6-GSK-3β (Homo sapiens, UniProt P49841); assay: Inhibition of His6-GSK-3β kinase activity (ELISA-based format, time-resolved fluorescence readout); assay type: biochemical; details: for IC50: read-out: GSK3β IC50
T2 construct: made in house; host or cells: Sf21 insect cells (baculovirus)
How it was run: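 N-terminal His6-tagged full-length human GSK-3β (aa 2-419) expressed in Sf21 cells, 200 ng/ml, phosphorylating plate-coated GST-Rb with 20 μM ATP in pH 7.2 HEPES buffer, 30 min at 37° C. Phospho-Rb (Ser-780) detected by antibody plus Eu-labelled secondary, time-resolved fluorescence; IC50 from curves.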

T2 sequence (P49841 2-419): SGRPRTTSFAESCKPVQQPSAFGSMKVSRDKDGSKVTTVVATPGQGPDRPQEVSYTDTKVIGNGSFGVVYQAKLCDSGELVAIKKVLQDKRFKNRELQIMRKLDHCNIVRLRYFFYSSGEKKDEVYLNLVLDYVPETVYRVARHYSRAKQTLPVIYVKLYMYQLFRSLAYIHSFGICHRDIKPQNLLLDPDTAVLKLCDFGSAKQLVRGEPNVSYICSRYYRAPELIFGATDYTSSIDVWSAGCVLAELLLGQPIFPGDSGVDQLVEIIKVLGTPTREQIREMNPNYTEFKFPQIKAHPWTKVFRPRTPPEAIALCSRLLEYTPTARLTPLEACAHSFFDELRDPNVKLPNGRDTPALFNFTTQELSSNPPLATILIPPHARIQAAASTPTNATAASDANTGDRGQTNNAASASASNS
T1 sequence (Q00535 whole entry): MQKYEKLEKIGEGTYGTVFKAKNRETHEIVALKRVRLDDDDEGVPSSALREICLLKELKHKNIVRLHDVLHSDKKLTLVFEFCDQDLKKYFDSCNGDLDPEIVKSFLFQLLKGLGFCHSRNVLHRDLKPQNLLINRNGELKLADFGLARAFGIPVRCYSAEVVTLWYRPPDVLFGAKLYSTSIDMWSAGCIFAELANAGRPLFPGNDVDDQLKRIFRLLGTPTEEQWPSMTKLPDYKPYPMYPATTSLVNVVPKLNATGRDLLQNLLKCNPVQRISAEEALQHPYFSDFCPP
T1 sequence (Q15078 108-307 partner limits assumed): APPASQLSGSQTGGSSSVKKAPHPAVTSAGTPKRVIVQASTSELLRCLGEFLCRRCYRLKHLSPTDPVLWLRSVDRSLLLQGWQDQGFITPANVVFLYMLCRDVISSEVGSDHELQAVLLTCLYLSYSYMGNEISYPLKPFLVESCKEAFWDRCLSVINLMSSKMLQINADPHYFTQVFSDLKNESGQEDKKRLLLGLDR

IC50 (CDK5/GST-p25; class symbols) [µM] | IC50 (His6-GSK-3β; numeric bounds) [µM] | melting point | IC50 (CDK5/GST-p25; numeric bounds) [µM] | IC50 (His6-GSK-3β; class symbols) [µM] | inhibition at 10 µM (CDK5/GST-p25) [%] | GSK3β % @10 μM (His6-GSK-3β; @10 μM) [% @10 μM] | Structure (SMILES)
> 10 | > 3 | 295 °C (dec.) | – | – | – | – | CC(C)Cn1cc2c(C3C(=O)Nc4ccc(Br)cc43)nc(Cl)nc2n1 (stereo not drawn) [Example 262, 5-Bromo-3-(6-chloro-2-isobutyl-2H-pyrazolo[3,4-d]pyrimidin-4-yl)-1,3-dihydro-indol-2-one]
– | – | 287 to 290 °C | > 3 | > 10 | – | – | O=C1Nc2ccc(Br)cc2C1c1ncnc2c1cnn2C1CCCC1 (stereo not drawn) [Example 54, 5-Bromo-3-(1-cyclopentyl-1H-pyrazolo[3,4-d]pyrimidin-4-yl)-1,3-dihydro-indol-2-one]
> 10 | – | > 300 °C (dec.) | – | > 10 | – | – | Cn1nc([N+](=O)[O-])c2c(C3C(=O)Nc4ccc(C#N)cc43)ncnc21 (stereo not drawn) [Example 148, 3-(1-Methyl-3-nitro-1H-pyrazolo[3,4-d]pyrimidin-4-yl)-2-oxo-2,3-dihydro-1H-indole-5-carbonitrile]
< 0.3 | – | > 300 °C | – | 0.3 to 3 | – | – | CC(C)n1cc2c(C3C(=O)Nc4ccc(C#N)cc43)ncnc2n1 (stereo not drawn) [Example 382, 3-(2-Isopropyl-2H-pyrazolo[3,4-d]pyrimidin-4-yl)-2-oxo-2,3-dihydro-1H-indole-5-carbonitrile]
> 10 | – | 335 to 338 °C | – | 0.3 to 3 | – | – | N#Cc1ccc2c(c1)NC(=O)C2c1ncnc2c1cnn2C1CCCC1 (stereo not drawn) [Example 63, 3-(1-Cyclopentyl-1H-pyrazolo [3,4-d]pyrimidin-4-yl)-2-oxo-2,3-dihydro-1H-indole-6-carbonitrile]
> 10 | – | 300 to 305 °C | – | > 10 | – | – | O=C1Nc2ccc(Cl)cc2C1c1ncnc2c1cnn2C1CCCCC1 (stereo not drawn) [Example 74, 5-Chloro-3-(1-Cyclohexyl-1H-pyrazolo[3,4-d]pyrimidin-4-yl)-1,3-dihydro-indol-2-one]
< 0.3 | – | 271 to 274 °C | – | < 0.3 | – | – | CC(C)Cn1cc2c(C3C(=O)Nc4ccc(Br)cc43)nc(NCCCN3CCOCC3)nc2n1 (stereo not drawn) [Example 265, 5-Bromo-3-[2-isobutyl-6-(3-morpholin-4-yl-propylamino)-2H-pyrazolo [3,4-d]pyrimidin-4-yl]-1,3-dihydro-indol-2-one]
0.3 to 3 | – | 293 to 295 °C | – | 0.3 to 3 | – | – | CCOCCn1cc2c(C3C(=O)Nc4ccc(Cl)cc43)nc(NCCN(C)C)nc2n1 (stereo not drawn) [Example 216, 5-Chloro-3-[6-(2-dimethylamino-ethylamino)-2-(2-ethoxy-ethyl)-2H-pyrazolo[3,4-d]pyrimidin-4-yl]-1,3-dihydro-indol-2-one]
< 0.3 | – | 294 to 297 °C | – | < 0.3 | – | – | CCCn1cc2c(C3C(=O)Nc4ccc(Br)cc43)nc(NCCc3cccnc3)nc2n1 (stereo not drawn) [Example 189, 5-Bromo-3-[2-propyl-6-(2-pyridin-3-yl-ethylamino)-2H-pyrazolo [3,4-d]pyrimidin-4-yl]-1,3-dihydro-indol-2-one]
< 0.3 | – | 282 to 287 °C | – | < 0.3 | – | – | CC(C)Cn1cc2c(C3C(=O)Nc4ccc(Br)cc43)nc(NCCN3CCOCC3)nc2n1 (stereo not drawn) [Example 264, 5-Bromo-3-[2-isobutyl-6-(2-morpholin-4-yl-ethylamino)-2H-pyrazolo[3,4-d]pyrimidin-4-yl]-1,3-dihydro-indol-2-one]
0.3 to 3 | – | 310 to 312 °C (dec.) | – | 0.3 to 3 | – | – | CN(C)CCCNc1nc(C2C(=O)Nc3ccc(Br)cc32)c2cn(C)nc2n1 (stereo not drawn) [Example 307, 5-Bromo-3-[6-(3-dimethylamino-propylamino)-2-methyl-2H-pyrazolo[3,4-d]pyrimidin-4-yl]-1,3-dihydro-indol-2-one]
> 10 | – | > 300 °C | – | < 0.3 | – | – | O=C1Nc2ccc(C(F)(F)F)cc2C1c1nc(NCCc2ccccn2)nc2nn(C3CCCC3)cc12 (stereo not drawn) [Example 247, 3-[2-Cyclopentyl-6-(2-pyridin-2-yl-ethylamino)-2H-pyrazolo[3,4-d]pyrimidin-4-yl]-5-trifluoromethyl-1,3-dihydro-indol-2-one]
– | – | 211 to 213 °C | > 3 | < 0.3 | – | – | CN(C)CCNc1nc(C2C(=O)Nc3ccc(C(F)(F)F)cc32)c2cn(C3CCCC3)nc2n1 (stereo not drawn) [Example 251, 3-[2-Cyclopentyl-6-(2-dimethylamino-ethylamino)-2H-pyrazolo[3,4-d]pyrimidin-4-yl]-5-trifluoromethyl-1,3-dihydro-indol-2-one]
< 0.3 | – | 298 to 300 °C | – | < 0.3 | – | – | CCOCCn1cc2c(C3C(=O)Nc4ccc(Br)cc43)nc(NC[C@@H](C)O)nc2n1 (stereo partly drawn) [Example 239, 5-Bromo-3-[2-(2-ethoxy-ethyl)-6-((R)-2-hydroxy-propylamino)-2H-pyrazolo[3,4-d]pyrimidin-4-yl]-1,3-dihydro-indol-2-one]
< 0.3 | – | 290 to 292 °C | – | < 0.3 | – | – | O=C1Nc2ccc(Cl)cc2C1c1ncnc2nn(C3CCCC3)cc12 (stereo not drawn) [Example 36, 5-Chloro-3-(2-Cyclopentyl-2H-pyrazolo [3,4-d]pyrimidin-4-yl)-2-oxo-1,3-dihydro-indol-2-one]
< 0.3 | – | 298 to 303 °C | – | < 0.3 | – | – | CCCn1cc2c(C3C(=O)Nc4ccc(Br)cc43)nc(NCCCN3CCOCC3)nc2n1 (stereo not drawn) [Example 203, 5-Bromo-3-[6-(3-morpholin-4-yl-propylamino)-2-propyl-2H-pyrazolo [3,4-d]pyrimidin-4-yl]-1,3-dihydro-indol-2-one]
– | – | > 310 °C | – | – | 73 | 70 | CCCCCn1cc2c(C3C(=O)Nc4ccc(C#N)cc43)nc(NC)nc2n1 (stereo not drawn) [Example 294, 3-(6-Methylamino-2-pentyl-2H-pyrazolo [3,4-d]pyrimidin-4-yl)-2-oxo-2,3-dihydro-1H-indole-5-carbonitrile]
0.3 to 3 | – | > 300 °C | – | < 0.3 | – | – | CC(=O)NCCNc1nc(C2C(=O)Nc3ccc(C(F)(F)F)cc32)c2cn(C3CCCC3)nc2n1 (stereo not drawn) [Example 163, 3-(2-cyclopentyl-6-(2-acetylamino-ethylamino)-2H-pyrazolo [3,4-d]pyrimidin-4-yl)-5-trifluoromethyl-1,3-dihydro-indol-2-one]
< 0.3 | – | > 300 °C | – | < 0.3 | – | – | C=CCNc1nc(C2C(=O)Nc3ccc(C#N)cc32)c2cn(C3CCCC3)nc2n1 (stereo not drawn) [Example 149, 3-(6-Allylamino-2-cyclopentyl-2H-pyrazolo[3,4-d]pyrimidin-4-yl)-2-oxo-2,3-dihydro-1H-indole-5-carbonitrile]
< 0.3 | – | 235 °C (dec.) | – | < 0.3 | – | – | CCCCCn1cc2c(C3C(=O)Nc4ccc(C(F)(F)F)cc43)nc(NCCCN)nc2n1 (stereo not drawn) [Example 289, 3-[6-(3-Amino-propylamino)-2-pentyl-2H-pyrazolo[3,4-d]pyrimidin-4-yl]-5-trifluoromethyl-1,3-dihydro-indol-2-one]
– | – | > 300 °C | > 3 | < 0.3 | – | – | O=C1Nc2ccc(C(F)(F)F)cc2C1c1nc(NCc2ccncc2)nc2nn(C3CCCC3)cc12 (stereo not drawn) [Example 246, 3-{2-Cyclopentyl-6-[(pyridin-4-ylmethyl)-amino]-2H-pyrazolo[3,4-d]pyrimidin-4-yl}-5-trifluoromethyl-1,3-dihydro-indol-2-one]
< 0.3 | – | 294 to 296.8 °C | – | < 0.3 | – | – | COCCNc1nc(C2C(=O)Nc3ccc(Br)cc32)c2cn(CC(C)C)nc2n1 (stereo not drawn) [Example 263, 5-Bromo-3-[2-isobutyl-6-(2-methoxy-ethylamino)-2H-pyrazolo[3,4-d]pyrimidin-4-yl]-1,3-dihydro-indol-2-one]
< 0.3 | – | 301 to 304 °C | – | < 0.3 | – | – | O=C1Nc2ccc([N+](=O)[O-])cc2C1c1ncnc2nn(C3CCCCC3)cc12 (stereo not drawn) [Example 49, 3-(2-Cyclohexyl-2H-pyrazolo[3,4-d]pyrimidin-4-yl)-5-nitro-1,3-dihydroindol-2-one]
< 0.3 | – | > 300 °C (dec.) | – | < 0.3 | – | – | N#Cc1ccc2c(c1)C(c1ncnc3nn(C4CCCC4)cc13)C(=O)N2 (stereo not drawn) [Example 30, 3-(2-Cyclopentyl-2H-pyrazolo[3,4-d]pyrimidin-4-yl)-2-oxo-2,3-dihydro-1H-indole-5-carbonitrile]
– | – | 296 to 297 °C | > 3 | 0.3 to 3 | – | – | O=C1Nc2c(F)cc(F)cc2C1c1ncnc2nn(C3CCCC3)cc12 (stereo not drawn) [Example 35, 3-(2-Cyclopentyl-2H-pyrazolo[3,4-d]pyrimidin-4-yl)-5,7-difluoro-1,3-dihydro-indol-2-one]
< 0.3 | – | > 300 °C (dec.) | – | > 10 | – | – | Cn1ncc2c(C3C(=O)Nc4ccc(C#N)cc43)ncnc21 (stereo not drawn) [Example 108, 3-(1-methyl-1H-pyrazolo[3,4-d]pyrimidin-4-yl)-2-oxo-2,3-dihydro-1H-indole-5-carbonitrile]
< 0.3 | – | 286 to 289 °C | – | < 0.3 | – | – | COCCNc1nc(C2C(=O)Nc3ccc(Cl)cc32)c2cn(CC(C)C)nc2n1 (stereo not drawn) [Example 272, 5-Chloro-3-[2-isobutyl-6-(2-methoxy-ethylamino)-2H-pyrazolo[3,4-d]pyrimidin-4-yl]-1,3-dihydro-indol-2-one]
